According to patent US9694024B2 (priority 2010, dated 2017):
“Also recorded” adds a separate entry of the source. Where two headings read alike, the source gives them in different places.

Columns and labels:
HIV-1 subtypes (A-G, O) = assay: Activity against HIV-1 subtypes in PBMCs; type: cell-based; conditions: Human immunodeficiency virus 1, PBMC
XMRV = XMRV antiviral cytoprotection assay (PG-4 cells, XTT); type: cell-based; conditions: 144 h, 6 day assay, read-out: EC50s for XMRV
Description: An XMRV antiviral cytoprotection assay was conducted using PG-4 cells (ATCC# CRL-2032; feline astrocytes) and XMRV was collected from the supernatant of 22Rv1 human prostate cancer cells (ATCC# CRL-2505). Inhibition of cytopathic effect was quantified using XTT following a 6 day assay. Ribavirin and AZT were evaluated in parallel as control compounds.

[1] = Phase I single dose study, plasma pharmacokinetics; type: in vivo, human; conditions: for Cmax / AUC(0-inf): human, plasma; for AUC(0-inf): read-out: CMX157 AUCINF
Description: (§1) The study was a randomized, blinded, dose escalation trial to evaluate safety, tolerability, and pharmacokinetics. Healthy volunteers in each cohort (6 active/2 placebo) received a single dose of 25, 50, 100, 200 or 400 mg. An additional cohort received a standard dose of Viread for comparison of TFV-PP levels. For tenofovir anabolite analysis, PBMCs were lysed with 70% ice cold methanol and centrifuged; supernatants were analyzed using LC/MS/MS. The clinical samples were split into two aliquots. One aliquot was used for analysis of CMX157; following addition of an internal standard, these samples were evaporated to dryness prior to reconstitution and analysis. The second aliquot was for analysis of TFV, TFV-monophosphate and TFV-diphosphate; following addition of internal standards, samples were vortexed and centrifuged prior to analysis.

[2] = Phase I single dose study, safety and tolerability; type: in vivo, human; conditions: healthy volunteers, single doses 25 mg to 400 mg
Description: as §1

[3] = Phase I single dose study, TFV-diphosphate in PBMCs of healthy volunteers; type: in vivo, human; conditions: single 400 mg dose of CMX157
Description: as §1

[4] = molecular target: human OAT3 (organic anion transporter3) (Homo sapiens (Human), UniProt Q8TCC7); assay: hOAT3 mediated uptake in MDCK-II cells; type: in vitro ADME; conditions: for Cellular Accumulation (control): control vector cells of hOAT3 test; for Cellular Accumulation (transporter): hOAT3 expressing MDCK-II cells
Description: Experimental: The uptake test system was comprised of a polarized monolayer of MCDK-II cells grown on permeable supports. The MDCK-II cells were treated to express the transporter of interest or treated with a control vector.
The uptake of 2 μM [^3H]-p-aminohippurate (PAH) and 0.75 μM [^3H]-estrone-3-sulfate (E-3-S) in the absence and presence of the reference inhibitor was determined by radiometric detection. The uptake of CMX157 and tenofovir was in the absence and presence of the reference inhibitor or 20% human serum was determined by LC/MS/MS. Experiments were performed under the same conditions for the cells expressing the transporter or those treated with the control vector.
Net Transporter Mediated Uptake=(Cellular accumulation in the presence of the transporter)−(Cellular accumulation in the absence of the transporter) Results: The net hOAT1 mediated uptake of tenofovir in the presence and absence of 100 μM probenecid or 20% human serum is shown in FIG. 8. The transport of tenofovir is inhibited by probenecid and relatively unchanged by the presence of 20% human serum. OAT3 also appeared to mediate the transport of tenofovir. The effect of probenecid, however, was minimal. The presence of 20% human serum in the OAT3 experiment reduced the OAT3 mediated transport of tenofovir.

human PBMCs = conditions: activated human PBMCs, 10 nM CMX157 (Lanier 2010); cited from earlier work
[5] = molecular target: human OAT1 (organic anion transporter1) (Homo sapiens (Human), UniProt Q4U2R8); assay: hOAT1 mediated uptake in MDCK-II cells; conditions: for Cellular Accumulation (control): control vector cells of hOAT1 test; for Cellular Accumulation (transporter): hOAT1 expressing MDCK-II cells

Structure (SMILES): CCCCCCCCCCCCCCCCOCCCOP(=O)(O)CO[C@H](C)Cn1cnc2c(N)ncnc21 [CMX157, 3-(hexadecyloxy)propyl hydrogen ((R)-1-(6-amino-9H-purin 9-yl)propan-2-yloxy)methylphosphonate]
- IC50 (HIV-1 subtypes (A-G, O); previously tested, read-out: IC50s against HIV-1 subtypes (A-G, O)): 1 to 7 nM
- EC50 (HIV-1 subtypes (A-G, O); read-out: EC50 against all major subtypes of HIV-1 in PBMCs): 0.2 to 7.18 nM
- EC50 (XMRV): 3 to 500 nM
- change of CMX157 plasma Cmax and AUC with dose ([1]; 25 mg to 400 mg single oral dose): approximate linear increase; also recorded: increased linearly with dose
- Cmax ([1]; oral, all single dose groups (25 to 400 mg), read-out: Cmax levels): > 10 nM
- AUC(0-inf) ([1]; single oral dose CMX157 200 mg, mean): 210 ng·h/mL
- Cmax ([1]; single oral dose CMX157 200 mg, mean, read-out: CMX157 Cmax): 74 ng/mL
- AUC(0-inf) ([1]; single oral dose CMX157 400 mg, mean): 376 ng·h/mL
- Cmax ([1]; single oral dose CMX157 400 mg, mean, read-out: CMX157 Cmax): 165 ng/mL
- serious and remarkable adverse events [2]: No SAEs or remarkable AEs were reported
- subjects reporting mild headache [2]: 3
- tolerability [2]: well tolerated
- TFV-diphosphate in PBMCs [3]: measurable in all subjects; also recorded: measurable in PBMCs from all patients
- TFV-diphosphate in PBMCs 6 days after dosing [3]: all but one had detectable levels
- substrate for human OAT3 [4]: did not appear to be a substrate
- Cellular Accumulation (control) ([4]; + 100 μM probenecid): 49.5 ± 2.65 pmol/min/cm^2
- Cellular Accumulation (control) ([4]; + 20% human serum): 4.90 ± 1.57 pmol/min/cm^2
- Cellular Accumulation (control) ([4]; substrate alone (E3S 0.75 μM)): 39.5 ± 11.6 pmol/min/cm^2
- Net Transporter Mediated Cellular Accumulation ([4]; hOAT3, + 100 μM probenecid): −23.4 ± 7.59 pmol/min/cm^2
- Net Transporter Mediated Cellular Accumulation ([4]; hOAT3, + 20% human serum): 1.26 ± 0.396 pmol/min/cm^2
- Net Transporter Mediated Cellular Accumulation ([4]; hOAT3, substrate alone (E3S 0.75 μM)): −8.72 pmol/min/cm^2
- Cellular Accumulation (transporter) ([4]; + 100 μM probenecid): 26.1 ± 7.59 pmol/min/cm^2
- Cellular Accumulation (transporter) ([4]; + 20% human serum): 6.16 ± 0.396 pmol/min/cm^2
- Cellular Accumulation (transporter) ([4]; substrate alone (E3S 0.75 μM)): 30.7 pmol/min/cm^2
- TFV-diphosphate produced (human PBMCs): 70 fmoles per million cells
- Cellular Accumulation (control) ([5]; + 100 μM probenecid): 40.4 ± 5.17 pmol/min/cm^2
- Cellular Accumulation (control) ([5]; + 20% human serum): 6.46 ± 0.168 pmol/min/cm^2
- Cellular Accumulation (control) ([5]; substrate alone (PAH 2 μM)): 50.3 ± 1.30 pmol/min/cm^2
- Net Transporter Mediated Cellular Accumulation ([5]; hOAT1, + 100 μM probenecid): −14.5 ± 4.65 pmol/min/cm^2
- Net Transporter Mediated Cellular Accumulation ([5]; hOAT1, + 20% human serum): −0.954 ± 1.70 pmol/min/cm^2
- Net Transporter Mediated Cellular Accumulation ([5]; hOAT1, substrate alone (PAH 2 μM)): −13.0 ± 0.0465 pmol/min/cm^2
- Cellular Accumulation (transporter) ([5]; + 100 μM probenecid): 25.9 ± 4.65 pmol/min/cm^2
- Cellular Accumulation (transporter) ([5]; + 20% human serum): 5.51 ± 1.70 pmol/min/cm^2
- Cellular Accumulation (transporter) ([5]; substrate alone (PAH 2 μM)): 37.3 ± 0.0465 pmol/min/cm^2
